Source: ChEMBL document CHEMBL4765493, “Berberine Directly Targets the NEK7 Protein to Block the NEK7-NLRP3 Interaction and Exert Anti-inflammatory Activity” (J Med Chem, 2021)
Each block holds one compound with its values, some of them ahead of it. Activity calls are given as the source filed them. The calls are words filed in the database; no cut-off is given here.

Legend:
HEK293 [1] = assay: Inhibition of NEK7-NLRP3 interaction (unknown origin) expressed in HEK293 cells at 10 uM incubated for 24 hrs by Co-IP assay; assay type: cell-based; details: Homo sapiens
[2] = Inhibition of LPS + nigericin-induced IL-1beta secretion in PMA-differentiated human THP-1 cells at 20 uM incubated for 24 hrs by ELISA; assay type: functional
[3] = target: T1, Serine/threonine-protein phosphatase PGAM5, mitochondrial (Homo sapiens) (UniProt Q96HS1); assay: Binding affinity to […] in PMA-differentiated human THP-1 cells incubated for 2 hrs by SDS-PAGE and LC-MS/MS analysis; assay type: cell-based
T1 sequence (whole entry): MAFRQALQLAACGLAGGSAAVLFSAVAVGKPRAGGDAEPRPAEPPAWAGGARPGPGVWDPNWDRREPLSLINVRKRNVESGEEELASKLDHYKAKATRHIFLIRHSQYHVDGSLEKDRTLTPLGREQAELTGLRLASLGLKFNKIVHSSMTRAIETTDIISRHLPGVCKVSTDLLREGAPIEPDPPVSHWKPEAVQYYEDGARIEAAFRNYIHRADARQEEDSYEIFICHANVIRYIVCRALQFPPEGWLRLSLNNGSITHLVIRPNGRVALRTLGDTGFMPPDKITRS

[4] = target: Nicotinamide/nicotinic acid mononucleotide adenylyltransferase 1 (Homo sapiens) (UniProt Q9HAN9); assay: Binding affinity to NMNAT1 in PMA-differentiated human THP-1 cells incubated for 2 hrs by SDS-PAGE and LC-MS/MS analysis; assay type: cell-based
[5] = target: T2, Uridine-cytidine kinase 2 (Homo sapiens) (UniProt Q9BZX2); assay: Binding affinity to UCK2 in PMA-differentiated human THP-1 cells incubated for 2 hrs by SDS-PAGE and LC-MS/MS analysis; assay type: cell-based
T2 sequence (whole entry): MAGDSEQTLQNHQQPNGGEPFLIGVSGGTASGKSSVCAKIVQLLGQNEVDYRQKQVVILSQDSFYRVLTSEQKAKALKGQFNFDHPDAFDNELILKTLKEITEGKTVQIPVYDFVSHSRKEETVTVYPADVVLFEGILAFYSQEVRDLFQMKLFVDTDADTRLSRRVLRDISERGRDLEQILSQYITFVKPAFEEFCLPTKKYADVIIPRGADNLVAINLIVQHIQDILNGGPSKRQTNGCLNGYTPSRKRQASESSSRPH

[6] = target: 28S rRNA (cytosine-C(5))-methyltransferase (Homo sapiens) (UniProt Q96P11); assay: Binding affinity to NSUN5 in PMA-differentiated human THP-1 cells incubated for 2 hrs by SDS-PAGE and LC-MS/MS analysis; assay type: cell-based
[7] = target: T3, Serine/threonine-protein kinase Nek7 (Homo sapiens, UniProt Q8TDX7); assay: Binding affinity to NEK7 in PMA-differentiated human THP-1 cells incubated for 2 hrs by SDS-PAGE and LC-MS/MS analysis; assay type: cell-based
Target sequence in this assay (Q8TDX7 whole entry, looked up): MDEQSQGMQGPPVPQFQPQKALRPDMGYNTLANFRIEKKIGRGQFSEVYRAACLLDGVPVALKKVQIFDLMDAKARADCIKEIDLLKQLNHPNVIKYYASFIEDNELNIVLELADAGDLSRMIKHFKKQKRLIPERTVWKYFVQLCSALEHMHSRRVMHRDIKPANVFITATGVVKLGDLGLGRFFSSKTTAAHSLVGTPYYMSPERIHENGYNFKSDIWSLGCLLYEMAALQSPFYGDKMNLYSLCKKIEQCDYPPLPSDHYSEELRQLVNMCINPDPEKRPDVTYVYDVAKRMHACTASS

[8] = target: T3, Serine/threonine-protein kinase Nek7; assay: Binding affinity to NEK7 in PMA-differentiated human THP-1 cells incubated for 2 hrs by immunoblot analysis; assay type: cell-based
Target sequence in this assay (Q8TDX7 whole entry, looked up): as above

[9] = target: T3, Serine/threonine-protein kinase Nek7; assay: Binding affinity to human recombinant NEK7 incubated for 2 hrs by pull down assay; details: THP-1
Target sequence in this assay (Q8TDX7 whole entry, looked up): as above

[10] = target: T3, Serine/threonine-protein kinase Nek7; assay: Binding affinity to human recombinant NEK7 incubated for 2 hrs in presence of BBR by pull down assay
Target sequence in this assay (Q8TDX7 whole entry, looked up): as above

[11] = target: T3, Serine/threonine-protein kinase Nek7; assay: Binding affinity to human recombinant NEK7 incubated for 2 hrs by pull down assay relative to control; details: THP-1
Target sequence in this assay (Q8TDX7 whole entry, looked up): as above

[12] = target: DIMT1 dimethyladenosine transferase 1 (Homo sapiens) (UniProt Q9UNQ2); assay: Binding affinity to DIM1 in PMA-differentiated human THP-1 cells incubated for 2 hrs by SDS-PAGE and LC-MS/MS analysis
[13] = Inhibition of LPS + nigericin-induced IL-1beta secretion in PMA-differentiated human THP-1 cells incubated for 1 to 24 hrs by Immunoblot analysis; assay type: functional, cell-based
[14] = Toxicity in mouse BMDM cells assessed as induction of cell death up to 40 uM incubated for 24 hrs by MTS assay; assay type: cell-based
[15] = Toxicity in mouse BMDM cells assessed as induction of apoptosis by measuring cleaved caspase-3 levels up to 40 uM incubated for 24 hrs by immunoblot analysis; assay type: cell-based
[16] = Toxicity in mouse BMDM cells assessed as induction of apoptosis by measuring cleaved caspase-7 levels up to 40 uM incubated for 24 hrs by immunoblot analysis; assay type: cell-based
[17] = Toxicity in mouse BMDM cells assessed as induction of apoptosis by measuring cleaved caspase-9 levels up to 40 uM incubated for 24 hrs by immunoblot analysis; assay type: cell-based
[18] = target: T3, Serine/threonine-protein kinase Nek7; assay: Binding affinity to NEK7 in PMA-differentiated human THP-1 cells assessed as reduction in Cy3-labeled target proteins at 100 uM incubated for 8 hrs using probe-16 by fluorescent gel imaging analysis; assay type: cell-based
Target sequence in this assay (Q8TDX7 whole entry, looked up): as above

[19] = target: T3, Serine/threonine-protein kinase Nek7; assay: Binding affinity to NEK7 in PMA-differentiated human THP-1 cells at 100 uM incubated for 8 hrs by streptavidin-bead enrichment and immunoblot assay; assay type: cell-based
[20] = target: T3, Serine/threonine-protein kinase Nek7; assay: Inhibition of purified recombinant human NEK7 incubated for 15 mins before ATP and substrate addition and further incubated for 40 mins by ADPGlo kinase assay
Target sequence in this assay (Q8TDX7 whole entry): as the sequence (Q8TDX7 whole entry, looked up) above

[21] = target: T3, Serine/threonine-protein kinase Nek7; assay: Binding affinity to purified recombinant human NEK7 by SPR analysis
Target sequence in this assay (Q8TDX7 whole entry): as the sequence (Q8TDX7 whole entry, looked up) above

HEK293 [22] = assay: Inhibition of NEK7-NLRP3 interaction (unknown origin) expressed in HEK293 cells incubated for 24 hrs by Co-IP assay; assay type: cell-based; details: Homo sapiens
THP-1 [23] = assay: Inhibition of NEK7-NLRP3 interaction in human THP-1 cells incubated for 24 hrs by Co-IP assay; assay type: cell-based
HEK293 [24] = assay: Inhibition of NEK7 R121A mutant-NLRP3 interaction (unknown origin) expressed in HEK293 cells at 10 uM incubated for 24 hrs by Co-IP assay; assay type: cell-based; details: Homo sapiens
THP-1 [25] = assay: Inhibition of LPS + nigericin-induced IL-1beta secretion in human THP-1 cells pre-treatment for 4 hrs before LPS + nigericin by immunoblot analysis; assay type: functional, cell-based
THP-1 [26] = assay: Inhibition of LPS + nigericin-induced caspase-1 activation in human THP-1 cells pre-treatment for 4 hrs before LPS + nigericin by immunoblot analysis; assay type: functional, cell-based
THP-1 [27] = assay: Inhibition of LPS + nigericin-induced NLRP3 expression in human THP-1 cells at 2.5 to 20 uM pre-treatment for 4 hrs before LPS + nigericin by immunoblot analysis; assay type: functional, cell-based; details: dose 2.5-20 µM
THP-1 [28] = assay: Inhibition of LPS + nigericin-induced pro-IL-beta expression in human THP-1 cells at 2.5 to 20 uM pre-treatment for 4 hrs before LPS + nigericin by immunoblot analysis; assay type: functional, cell-based; details: dose 2.5-20 µM
BMDM [29] = assay: Inhibition of LPS + nigericin-induced IL-1beta secretion in mouse BMDM at 2.5 to 20 uM pre-treatment for 4 hrs before LPS + nigericin by immunoblot analysis; assay type: functional, tissue-based; details: dose 2.5-20 µM
BMDM [30] = assay: Inhibition of LPS + nigericin-induced caspase-1 activation in mouse BMDM at 2.5 to 20 uM pre-treatment for 4 hrs before LPS + nigericin by immunoblot analysis; assay type: functional, tissue-based; details: dose 2.5-20 µM
BMDM [31] = assay: Inhibition of LPS + nigericin-induced NLRP3 expression in mouse BMDM at 2.5 to 20 uM pre-treatment for 4 hrs before LPS + nigericin by immunoblot analysis; assay type: functional, tissue-based; details: dose 2.5-20 µM
BMDM [32] = assay: Inhibition of LPS + nigericin-induced pro-IL-1beta expression in mouse BMDM at 2.5 to 20 uM pre-treatment for 4 hrs before LPS + nigericin by immunoblot analysis; assay type: functional, tissue-based; details: dose 2.5-20 µM
THP-1 [33] = assay: Inhibition of LPS + nigericin-induced ASC-pyroptosome formation in human THP-1 cells at 5 to 10 uM uM pre-treatment for 4 hrs before LPS + nigericin addition by immunofluorescence analysis; assay type: functional, cell-based; details: dose 5-10 µM
THP-1 [34] = assay: Inhibition of AIM2-induced IL-1beta activation in human THP-1 cells at 10 uM pre-treatment for 2 hrs before AIM2 addition; assay type: functional, cell-based
Mus musculus [35] = assay: Inhibition of serum IL-1beta production in NEK7 knockdown C57BL/6 mouse model at 5 mg/kg, ip dosed three times every 12 hrs followed by LPS challenge by ELISA; assay type: functional, organism-based
Mus musculus [36] = assay: Inhibition of serum IL-1beta production in NEK7 wild type C57BL/6 mouse model at 5 mg/kg, ip dosed three times every 12 hrs followed by LPS challenge by ELISA; assay type: functional, organism-based
Mus musculus [37] = assay: Antiinflammatory activity in NEK7 wild type C57BL/6 mouse model assessed as reduction in inflammatory infiltration in liver at 5 mg/kg, ip dosed three times every 12 hrs followed by LPS challenge by H and E staining; assay type: functional, organism-based
Mus musculus [38] = assay: Antiinflammatory activity in NEK7 wild type C57BL/6 mouse model assessed as reduction in lesion in heart in at 5 mg/kg, ip dosed three times every 12 hrs followed by LPS challenge by H and E staining; assay type: functional, organism-based
Mus musculus [39] = assay: Antiinflammatory activity in NEK7 wild type C57BL/6 mouse model assessed as reduction in lesion in lung in at 5 mg/kg, ip dosed three times every 12 hrs followed by LPS challenge by H and E staining; assay type: functional, organism-based
Mus musculus [40] = assay: Antiinflammatory activity in NEK7 wild type C57BL/6 mouse model assessed as reduction in lesion in kidney in at 5 mg/kg, ip dosed three times every 12 hrs followed by LPS challenge by H and E staining; assay type: functional, organism-based
Mus musculus [41] = assay: Antiinflammatory activity in NEK7 wild type C57BL/6 mouse model assessed as reduction in lesion in spleen in at 5 mg/kg, ip dosed three times every 12 hrs followed by LPS challenge by H and E staining; assay type: functional, organism-based

Sequence of DIMT1 dimethyladenosine transferase 1 (Homo sapiens) (Q9UNQ2 whole entry, looked up): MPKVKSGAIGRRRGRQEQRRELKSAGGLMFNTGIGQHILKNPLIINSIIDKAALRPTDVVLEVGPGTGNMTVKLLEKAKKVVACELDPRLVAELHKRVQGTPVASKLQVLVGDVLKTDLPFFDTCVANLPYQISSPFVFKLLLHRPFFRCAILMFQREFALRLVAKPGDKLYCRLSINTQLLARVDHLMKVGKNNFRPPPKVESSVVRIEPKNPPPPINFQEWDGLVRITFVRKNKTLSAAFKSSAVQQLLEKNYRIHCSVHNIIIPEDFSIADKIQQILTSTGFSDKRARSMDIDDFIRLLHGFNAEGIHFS
Sequence of 28S rRNA (cytosine-C(5))-methyltransferase (Homo sapiens) (Q96P11 whole entry): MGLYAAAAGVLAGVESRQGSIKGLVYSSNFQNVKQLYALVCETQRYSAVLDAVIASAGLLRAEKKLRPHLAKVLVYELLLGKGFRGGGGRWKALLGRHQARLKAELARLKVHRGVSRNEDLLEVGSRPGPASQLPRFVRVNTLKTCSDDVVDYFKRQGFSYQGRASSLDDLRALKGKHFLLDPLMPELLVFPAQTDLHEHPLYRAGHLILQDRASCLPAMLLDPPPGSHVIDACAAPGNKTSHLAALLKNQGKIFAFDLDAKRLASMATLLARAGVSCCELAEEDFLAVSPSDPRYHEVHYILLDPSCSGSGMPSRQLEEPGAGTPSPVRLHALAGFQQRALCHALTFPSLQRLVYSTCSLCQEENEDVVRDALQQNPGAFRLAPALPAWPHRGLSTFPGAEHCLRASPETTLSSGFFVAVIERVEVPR
Sequence of Nicotinamide/nicotinic acid mononucleotide adenylyltransferase 1 (Homo sapiens) (Q9HAN9 whole entry): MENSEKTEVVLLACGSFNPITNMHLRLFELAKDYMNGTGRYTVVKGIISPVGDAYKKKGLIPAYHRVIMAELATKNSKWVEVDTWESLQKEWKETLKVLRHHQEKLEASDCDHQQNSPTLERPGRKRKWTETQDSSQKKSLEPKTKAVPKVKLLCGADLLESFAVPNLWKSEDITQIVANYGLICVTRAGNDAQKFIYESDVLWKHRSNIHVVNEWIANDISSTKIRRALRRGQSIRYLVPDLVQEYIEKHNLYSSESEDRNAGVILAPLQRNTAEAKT

SMILES: COc1cc2c(cc1OC)-c1cc3ccc(OC)c(OC)c3c[n+]1CC2
- inhibition (HEK293 [1]): inactive

SMILES: COc1cc2c(cc1OCCCCCNC(=O)CCCC[C@@H]1SC[C@@H]3NC(=O)N[C@@H]31)CC[n+]1cc3c(OC)c(OC)ccc3cc1-2
- inhibition at 20 µM [2]: 70%

SMILES: COc1c(OCCCNC(=O)CCCC[C@@H]2SC[C@@H]3NC(=O)N[C@@H]32)ccc2cc3[n+](cc12)CCc1cc2c(cc1-3)OCO2
- inhibition at 20 µM [2]: 38%

SMILES: COc1cc2c(cc1OCCOCCOCCNC(=O)CCCC[C@@H]1SC[C@@H]3NC(=O)N[C@@H]31)CC[n+]1cc3c(OC)c(OC)ccc3cc1-2
- inhibition at 20 µM [2]: -79%

SMILES: COc1cc2c(cc1OC)-c1cc3ccc(OC)c(OCCOCCNC(=O)CCCC[C@@H]4SC[C@@H]5NC(=O)N[C@@H]54)c3c[n+]1CC2
- inhibition at 20 µM [2]: 65%

- Activity [3]: Active
- Activity [4]: Active
- Activity [5]: Active
- Activity [6]: Active
- Activity [7]: Active
- Activity [8]: Active
- Activity [9]: Active
- Activity [10]: inactive
- Activity [11]: Dose-dependent effect
- Activity [12]: Active
SMILES: COc1c(OCCOCCOCCNC(=O)CCCC[C@@H]2SC[C@@H]3NC(=O)N[C@@H]32)ccc2cc3[n+](cc12)CCc1cc2c(cc1-3)OCO2
- inhibition at 20 µM [2]: 83%

SMILES: COc1cc2c(cc1OC)-c1cc3ccc(OC)c(OCCCNC(=O)CCCC[C@@H]4SC[C@@H]5NC(=O)N[C@@H]54)c3c[n+]1CC2
- inhibition at 20 µM [2]: 80%

SMILES: COc1ccc2cc3[n+](cc2c1OCCOCCNC(=O)CCCC[C@@H]1SC[C@@H]2NC(=O)N[C@@H]21)CCc1cc2c(cc1-3)OCO2
- inhibition at 20 µM [2]: 10%

- IC50 [13]: 5.1 µM
- Activity [18]: Active
- Activity [19]: Active
- IC50 [20]: 4.2 µM
- Kd [21]: 15.6 µM
- inhibition (BMDM [30]): Active
SMILES: COc1ccc2cc3[n+](cc2c1OC)CCc1cc2c(cc1-3)OCO2.[Cl-] [BERBERINE CHLORIDE]
- Activity [14]: Non-Toxic
- Activity [15]: Non-Toxic
- Activity [16]: Non-Toxic
- Activity [17]: Non-Toxic
- inhibition at 20 µM [2]: 72%
- inhibition (HEK293 [22]): Dose-dependent effect
- inhibition (THP-1 [23]): Dose-dependent effect
- inhibition (HEK293 [1]): Active
- inhibition (HEK293 [24]): inactive
- inhibition (THP-1 [25]): Active
- inhibition (THP-1 [26]): Active
- inhibition (THP-1 [27]): inactive
- inhibition (THP-1 [28]): inactive
- inhibition (BMDM [29]): Active
- inhibition (BMDM [31]): inactive
- inhibition (BMDM [32]): inactive
- inhibition (THP-1 [33]): Active
- inhibition (THP-1 [34]): inactive
- Activity (Mus musculus [35]): inactive
- Activity (Mus musculus [36]): Active
- Activity (Mus musculus [37]): Active
- Activity (Mus musculus [38]): Active
- Activity (Mus musculus [39]): Active
- Activity (Mus musculus [40]): Active
- Activity (Mus musculus [41]): Active
